Read-outs that look alike come from different tables or passages of the source.
Assays:
[1] = target: T1, reuptake of NA by brain synaptosomes (prefrontal cortex) (Rattus norvegicus, UniProt Q9WTR4); assay: Inhibition of [3H]NA reuptake by rat brain synaptosomes, single concentration (Example 35); type: biochemical; conditions: test substance 10 μmol/L; inhibitory rate of 0.1 mM venlafaxine taken as 100%
T1 construct: from tissue; host or cells: rat prefrontal cortex synaptosomes
Method: (§1) Studies on the reuptake of monoamine neurotransmitters by brain synaptosomes was performed, which is a currently important mean adopted in the worldwide in pharmacological studies of central nervous. This method can not only be used to study the action mechanism of a drug, but also be used for screening new drugs acting by this mechanism.
(§2) Male SD rats were sacrificed by cervical dislocation and then the brains thereof were taken out rapidly by decollation and placed on ice. Related rain tissues (for [^3H]5-HT and [^3H]NA reuptake experiment, prefrontal cortex was taken; for [^3H]DA reuptake experiment, striatum was taken) were separated and weighed. 10 times (V/W) of 0.32 mol/L ice-cold sucrose solution was added and was homogenized electrically with glass-teflon. The homogenate was centrifugated at 4° C. at 1000 g×10 min. Then the supernatant was taken and centrifugated at 4° C. at 17000 g×20 min. The precipitation was suspended in 30 volume of KRH Buffer (125 mM NaCl, 4.8 mM KCl, 1.2 mM CaCl2, 1.2 mM MgSO4, 1.0 mM KH2PO4, 22 mM NaHCO3, 25 mM HEPES, 10 mM Glucose, 10 μM Pargyline, 0.2 mg/ml Ascorbic Acid) and then was preserved in an ice bath for use. (for NA reuptake experiment, the cortex needed was suspended in 20 volume of KRH Buffer)
(§3) Stock solution of the test substance was thawed immediately before use and diluted with KBH Buffer to 100 μmol/L, 50 μl thereof was added in 500 μl of total reaction system, and the final concentration was 10 μmol/L. Then 50 μl suspended synaptic prepared above was added and mixed evenly, incubated in water bath for 30 min at 37° C. Then […] [^3H] 5-HT (50 nmol/L [^3H]DA or […] [^3H]NA) was added. After incubated at 37° C. for 10 min, the reaction system was immediately taken out and the reaction was stopped by adding 2 ml of ice-cold 150 mmol/L Tris-HCl buffer solution. The samples were collected on the circular fiberglass membrane by vacuum filtration, and the membrane was washed 3 times with 3 ml of ice-cold Tris-HCl buffer solution. The filtration membrane was removed, baked for 15 min in a far-infrared oven and placed into an EP tube. 1.5 ml scintillation fluid was added overnight and was tested by liquid scintillation counter. For the solvent control total binding tube and the non-specific binding tube, no test substance was added; for the total binding tube, 50 μl solvent was added.

[2] = target: T2, reuptake of 5-HT by brain synaptosomes (prefrontal cortex) (Rattus norvegicus, UniProt P31652); assay: Inhibition of [3H]5-HT reuptake by rat brain synaptosomes, single concentration (Example 35); type: biochemical; conditions: test substance 10 μmol/L; inhibitory rate of 0.1 mM venlafaxine taken as 100%
T2 construct: from tissue; host or cells: rat prefrontal cortex synaptosomes
Method: as §1, §2, §3

[3] = target: T3, reuptake of DA by brain synaptosomes (striatum) (Rattus norvegicus, UniProt P23977); assay: Inhibition of [3H]DA reuptake by rat brain synaptosomes, single concentration (Example 35); type: biochemical; conditions: test substance 10 μmol/L; inhibitory rate of 0.1 mM 6-hydroxy DA taken as 100%
T3 construct: from tissue; host or cells: rat striatum synaptosomes
Method: as §1, §2, §3

ICR mice = assay: Mice Forced Swimming Test (in vivo antidepression activity); conditions: for swimming test: immobility time: n = 12, mean±SD
[4] = target: T4, reuptake of [3H]DA by striatum synaptosomes (Rattus norvegicus, UniProt P23977); assay: IC50 for inhibiting reuptake of [3H]DA by brain synaptosomes (Example 36); type: biochemical; conditions: mean, n = 3~4
T4 construct: from tissue; host or cells: rat striatum synaptosomes
Method: as §2
(§4) 1. Preparation of Rat Brain Synaptosomes (the Same as Example 35)
(§5) The compounds were used for the studies on inhibition effect (IC50) on reuptake of [^3H]5-HT/NA/DA. At least 5 concentrations each time were settled for each test compound. Each concentration was determined by the average of double twin tubes and the test was repeated for more than 3 times. A series of concentrations of the compounds were prepared by gradient dilution before use. 50 μl thereof was added in total reaction system. Then 50 μl suspended synaptic membrane was added and mixed evenly, incubated in water bath at 37° C. for 30 min. Then 10 nmol/L [^3H] 5-HT (or 50 nmol/L [^3H]DA or 40 nmol/L [^3H]NA) was added and incubated in water bath at 37° C. for 10 min (for [^3H]NA, incubated for 5 min). For the [^3H]5-HT reuptake experiment, 50 μL of fluoxetine (100 μmol/L) was added to the non-specific binding tube; for the [^3H]DA reuptake experiment, 50 μL of cocaine (600 μmol/L) was added to the non-specific binding tube; for the [^3H]NA reuptake experiment, 50 μL of desipramine (100 μmol/L) was added to the non-specific binding tube; for the solvent control, solvent was added to the total binding tube, but no test compound added.
(§6) Sigmoidal curve fitting was performed for the data obtained from all of the test drugs by Origin 6.1, and the IC50 value was calculated.

[5] = target: T5, reuptake of [3H]5-HT by prefrontal cortex synaptosomes (Rattus norvegicus, UniProt P31652); assay: IC50 for inhibiting reuptake of [3H]5-HT by brain synaptosomes (Example 36); type: biochemical; conditions: mean, n = 3~4
T5 construct: from tissue; host or cells: rat prefrontal cortex synaptosomes
Method: as §2, with “The precipitation was suspended in 30 volume of KRH Buffer (125 mM NaCl, 4.8 mM KCl, 1.2 mM CaCl2, 1.2 mM MgSO4, 1.0 mM KH2PO4, 22 mM NaHCO3, 25 mM HEPES, 10 mM Glucose, 10 μM Pargyline, 0.2 mg/ml Ascorbic Acid) and then was preserved in an ice bath for use.” left out
as §5, §6

[6] = target: T6, reuptake of [3H]NA by prefrontal cortex synaptosomes (Rattus norvegicus, UniProt Q9WTR4); assay: IC50 for inhibiting reuptake of [3H]NA by brain synaptosomes (Example 36); type: biochemical; conditions: mean, n = 3~4
T6 construct: from tissue; host or cells: rat prefrontal cortex synaptosomes
Method: as §2, §4, §5, §6

[7] = Pharmacokinetics and bioavailability, single i.v. and oral administration in SD rat; type: in vivo; conditions: male, plasma; for Cmax: read-out: Cmax; for AUC (0-t): read-out: AUC (0-t); for half-life: read-out: half life (T½) (converted)
Method: To study the pharmacokinetics parameters and the bioavailability of VIII-9, VIII-10 and SIPI5286 when single i.v. and oral administration in SD rat
Eighteen male rats were randomized into 6 groups and were administrated with the three compounds via i.v. and oral route, respectively. The dosage was 10 mg/kg (IV) and 50 mg/kg (PO). The test substance was dissolved in the solution of 5% DMSO/95% HP-β-CD aqueous solution (30%), and were administrated to the animal via i.v. and oral route. Blood plasma was collected at a serial of time points after i.v. and oral administration, and the blood drug concentrations were determined by LC/MS/MS. Then the pharmacokinetics parameters and the bioavailability were calculated based on the blood drug concentrations.

T2 sequence (P31652 whole entry): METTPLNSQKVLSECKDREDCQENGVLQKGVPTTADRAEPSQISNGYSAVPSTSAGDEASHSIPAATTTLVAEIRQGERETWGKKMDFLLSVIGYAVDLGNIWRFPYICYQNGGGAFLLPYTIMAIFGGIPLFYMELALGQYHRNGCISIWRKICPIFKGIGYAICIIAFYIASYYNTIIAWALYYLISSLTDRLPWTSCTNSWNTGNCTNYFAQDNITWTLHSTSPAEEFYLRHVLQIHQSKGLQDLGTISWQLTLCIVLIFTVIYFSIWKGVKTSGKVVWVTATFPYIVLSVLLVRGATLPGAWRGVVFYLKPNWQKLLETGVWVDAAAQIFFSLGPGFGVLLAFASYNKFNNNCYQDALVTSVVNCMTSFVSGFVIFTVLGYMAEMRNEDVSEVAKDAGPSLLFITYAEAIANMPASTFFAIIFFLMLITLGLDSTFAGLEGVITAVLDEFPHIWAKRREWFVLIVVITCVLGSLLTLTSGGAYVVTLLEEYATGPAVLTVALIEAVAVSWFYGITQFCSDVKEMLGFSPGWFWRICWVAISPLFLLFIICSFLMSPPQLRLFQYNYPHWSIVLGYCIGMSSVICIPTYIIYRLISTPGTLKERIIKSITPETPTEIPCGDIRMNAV
T1 sequence (Q9WTR4 1-597): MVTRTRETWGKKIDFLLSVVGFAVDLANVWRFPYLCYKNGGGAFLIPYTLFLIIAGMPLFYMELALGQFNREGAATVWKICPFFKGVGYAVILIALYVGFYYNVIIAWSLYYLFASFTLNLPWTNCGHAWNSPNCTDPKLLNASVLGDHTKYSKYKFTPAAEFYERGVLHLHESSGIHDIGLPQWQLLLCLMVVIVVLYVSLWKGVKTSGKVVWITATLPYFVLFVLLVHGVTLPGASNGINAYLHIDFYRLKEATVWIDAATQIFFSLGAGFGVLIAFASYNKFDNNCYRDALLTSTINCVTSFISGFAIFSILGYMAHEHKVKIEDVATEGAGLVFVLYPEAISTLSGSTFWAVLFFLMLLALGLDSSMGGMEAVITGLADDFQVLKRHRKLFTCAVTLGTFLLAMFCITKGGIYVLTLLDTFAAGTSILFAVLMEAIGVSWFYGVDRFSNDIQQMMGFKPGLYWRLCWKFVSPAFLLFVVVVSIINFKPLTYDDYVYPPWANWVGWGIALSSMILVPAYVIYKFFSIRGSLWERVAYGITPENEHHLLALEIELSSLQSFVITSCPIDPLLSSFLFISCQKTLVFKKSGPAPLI
T3 sequence (P23977 whole entry): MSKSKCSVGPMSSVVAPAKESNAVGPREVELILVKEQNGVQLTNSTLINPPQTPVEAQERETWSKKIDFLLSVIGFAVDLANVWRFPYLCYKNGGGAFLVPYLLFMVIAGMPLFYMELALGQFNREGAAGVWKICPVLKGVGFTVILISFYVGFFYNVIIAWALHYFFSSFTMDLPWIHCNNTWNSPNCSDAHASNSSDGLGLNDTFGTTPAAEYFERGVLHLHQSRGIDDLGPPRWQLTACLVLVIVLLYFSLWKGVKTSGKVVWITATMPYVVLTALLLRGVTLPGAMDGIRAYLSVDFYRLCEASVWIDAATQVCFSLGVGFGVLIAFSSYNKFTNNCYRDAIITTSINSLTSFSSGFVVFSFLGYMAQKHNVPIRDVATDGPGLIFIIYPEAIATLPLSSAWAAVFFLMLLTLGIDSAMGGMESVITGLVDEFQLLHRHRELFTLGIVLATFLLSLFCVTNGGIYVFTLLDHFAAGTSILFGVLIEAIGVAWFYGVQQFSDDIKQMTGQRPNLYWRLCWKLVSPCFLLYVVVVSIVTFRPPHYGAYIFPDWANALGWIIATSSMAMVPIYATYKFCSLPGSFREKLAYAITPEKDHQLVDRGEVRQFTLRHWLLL
T5 sequence (P31652 whole entry): as the sequence (P31652 whole entry) above
T6 sequence (Q9WTR4 1-597): as the sequence (Q9WTR4 1-597) above
T4 sequence (P23977 whole entry): as the sequence (P23977 whole entry) above

CCCC[C@@H]([C@@H](O)c1ccc2c(Cl)c(OC)ccc2c1)N1CCN(CC=Cc2ccccc2)CC1 (racemic) [VIII-22, (1SR,2SR)-N^1-cinnamyl-N^4-[1-butyl-2-(5′-chloro-6′-methoxyl-2′-naphthyl)hydroxyethyl]piperazine]
inhibition on the reuptake of NA(%) [1]: 78.9%
Inhibition on the reuptake of 5-HT(%) [2]: 82.3%
inhibition on the reuptake of DA(%) [3]: 94%

CCCC[C@@H]([C@@H](O)c1ccc2c(Cl)c(OC)ccc2c1)N1CCN(c2ccccc2OC)CC1 (racemic) [VIII-4, (1SR,2SR)-N^1-o-methoxylphenyl-N^4-[1-butyl-2-(5′-chloro-6′-methoxyl-2′-naphthyl)hydroxyethyl]piperazine]
inhibition on the reuptake of NA(%) [1]: 146.5%
Inhibition on the reuptake of 5-HT(%) [2]: 23%
inhibition on the reuptake of DA(%) [3]: 68%

NCCc1cc(O)c(O)cc1O [6-hydroxy DA, reference compound]
inhibition on the reuptake of DA(%) [3]: 100%

CCCC[C@H]([C@@H](O)c1ccc2c(Cl)c(OC)ccc2c1)N1CCN(C(c2ccccc2)c2ccccc2)CC1 (racemic) [VIII-19, (1SR,2RS)-N^1-benzhydryl-N^4-[1-butyl-2-(5′-chloro-6′-methoxyl-2′-naphthyl)hydroxyethyl]piperazine]
inhibition on the reuptake of NA(%) [1]: 103.6%
Inhibition on the reuptake of 5-HT(%) [2]: 73.4%
inhibition on the reuptake of DA(%) [3]: 95%

COc1ccc(C(CN(C)C)C2(O)CCCCC2)cc1 (centres unmarked) [venlafaxine, reference compound]
swimming test: immobility time (ICR mice; one week oral administration, 50 mg/kg): 83.5 ± 29.0 s
inhibition on the reuptake of NA(%) [1]: 100%

COc1ccc2cc(C(O)C(C)N3CCN(Cc4ccccc4)CC3)ccc2c1Cl (centres unmarked) [SIPIyy24, N^1-benzyl-N^4-[1-methyl-2-(5′-chloro-6′-methoxyl-2′-naphthyl) hydroxyethyl]piperazine, reference compound]
IC50 [^3H]DA reuptake [4]: No activity detected
IC50 [5]: 200 nM
IC50 [6]: 1000 nM

COc1ccc2cc([C@@H](O)[C@H](C)N3CCN(Cc4ccccc4)CC3)ccc2c1Cl [SIPI5286, reference compound]
ED50 (ICR mice; Mus musculus, single oral administration): 28.9 mg/kg
swimming test: immobility time (ICR mice; one week oral administration, 10.4 mg/kg): 123.8 ± 21.68 s
swimming test: immobility time (ICR mice; one week oral administration, 17.3 mg/kg): 102.9 ± 37.94 s
swimming test: immobility time (ICR mice; one week oral administration, 28.8 mg/kg): 97.2 ± 28.33 s
swimming test: immobility time (ICR mice; one week oral administration, 48 mg/kg): 95.5 ± 27.0 s
swimming test: immobility time (ICR mice; single oral administration, 10.4 mg/kg): 107.9 ± 37.19 s
swimming test: immobility time (ICR mice; single oral administration, 17.3 mg/kg): 105.4 ± 33.11 s
swimming test: immobility time (ICR mice; single oral administration, 28.8 mg/kg): 92.1 ± 23.11 s
swimming test: immobility time (ICR mice; single oral administration, 48 mg/kg): 90.1 ± 26.02 s
IC50 [4]: 1150 nM
Cmax ([7]; iv, i.v. 10 mg/kg, (5 min)): 13900 ng/mL
AUC (0-t) ([7]; iv, i.v. 10 mg/kg): 12600 ng·h/mL
half-life ([7]; iv, i.v. 10 mg/kg): 3.41 h
bioavailability ([7]; oral 50 mg/kg vs i.v. 10 mg/kg, read-out: bioavailability): 51.6%
AUC (0-t) ([7]; oral 50 mg/kg): 30300 ng·h/mL
Cmax ([7]; oral 50 mg/kg): 6860 ng/mL
Tmax ([7]; oral 50 mg/kg, read-out: Tmax): 0.5 h
half-life ([7]; oral 50 mg/kg): 5.71 h
IC50 [5]: 12 nM
IC50 [6]: 185 nM

CCCC[C@H]([C@H](O)c1ccc2c(Cl)c(OC)ccc2c1)N1CCN(C(c2ccccc2)c2ccccc2)CC1 (racemic) [VIII-20, (1SR,2SR)-N^1-benzhydryl-N^4-[1-butyl-2-(5′-chloro-6′-methoxyl-2′-naphthyl)hydroxyethyl]piperazine]
inhibition on the reuptake of NA(%) [1]: 78%
Inhibition on the reuptake of 5-HT(%) [2]: 0%
inhibition on the reuptake of DA(%) [3]: 57%

CCCC[C@@H]([C@H](O)c1ccc2c(Cl)c(OC)ccc2c1)N1CCN(c2ccccc2OC)CC1 (racemic) [VIII-3, (1SR,2RS)-N^1-o-methoxylphenyl-N^4-[1-butyl-2-(5′-chloro-6′-methoxyl-2′-naphthyl)hydroxyethyl]piperazine]
inhibition on the reuptake of NA(%) [1]: 144%
Inhibition on the reuptake of 5-HT(%) [2]: 65.1%
inhibition on the reuptake of DA(%) [3]: 96%

CCCC[C@H]([C@@H](O)c1ccc2c(Cl)c(OC)ccc2c1)N1CCN(CC=Cc2ccccc2)CC1 (racemic) [VIII-21, (1SR,2RS)-N^1-cinnamyl-N^4-[1-butyl-2-(5′-chloro-6′-methoxyl-2′-naphthyl)hydroxyethyl]piperazine]
inhibition on the reuptake of NA(%) [1]: 87.5%
Inhibition on the reuptake of 5-HT(%) [2]: 81%
inhibition on the reuptake of DA(%) [3]: 90%
